What was measured:
Assay type in all cases: cell-based
Yersinia enterocolitica [1] = assay: Agar dilution method microbicidal test; on Growth on agar plate: key: +: grew; −: did not grow
Protocol: (§1) As microbicidal test method for trans-p-coumaric acid, 3-hydroxypyridine, p-hydroxybenzaldehyde and vanillin, the agar dilution method was employed.
(§2) In agar dilution method, a solution in which a sample is dissolved is serially diluted several times, and each of the diluted sample solutions is mixed with agar medium to prepare plate agars having various sample concentration. Then bacteria is inoculated onto the plate agars. In cases where the sample has a microbicidal activity, the growth of the bacteria on the plates can be inhibited. The lowest concentration which can inhibit the growth of the bacteria is referred to as Minimum Inhibitory Concentration (MIC), thereby judging the degree of a microbicidal activity of the sample.
(§3) First, 400 mg of sample was dissolved in 1 mL of DMSO to prepare 400 mg/mL sample solution. Then 0.5 mL of this 400 mg/mL sample solution was diluted 2-fold to prepare 200 mg/mL sample solution. In the same manner, sample solutions of 100 mg/mL, 50.0 mg/mL, and 25.0 mg/mL were prepared. In addition, 300 mg/mL sample solution was prepared. Thereafter, 0.2 mL of these sample solutions each was mixed with 19.8 mL of BHI (Brain Heart Infusion Agar, Becton Dickinson, MD) medium, thereby preparing agar plates having the sample concentration of 4.0 mg/mL, 3.0 mg/mL, 2.0 mg/mL, 1.0 mg/mL, 0.5 mg/mL, and 0.25 mg/mL in dishes. […] Sterilized water was used for dissolving catechin, because catechin was insoluble in DMSO.
(§4) As test bacteria, 13 kinds of bacteria, i.e., Streptococcus pneumoniae, Streptococcus pyogenes, Enterococcus faecalis, Staphylococcus aureus, Escherichia coli, Salmonella sp., Yersinia enterocolitica, Vibrio parahaemolyticus, Pseudomonas aeruginosa, Bacillus cereus, Bacillus subtilis MB-32, Bacillus subtilis ATCC6633, and Candida sp., were used. These bacteria each was mixed with 2 mL of sterilized MHB^R liquid medium (Mueller Hinton Broth^R, Becton Dickinson, MD) to prepare bacterial suspension having turbidity 1 (bacterial concentration 10^8/mL). Previously, small test tubes were set into each cell of a grating and sterilized, and 1 mL of 13 bacterial suspensions were added into the small test tubes set in the grating, respectively. By using a microplanter (SAKUMA, model: MIT-P), 10 μL aliquot was collected from each test tube set in the grating and transferred to other test tube, and the transferred bacterial suspensions were diluted 100-fold (bacterial concentration 10^6/mL).
(§5) By using the microplanter, 10 μL (bacterial number […]) of this bacterial suspension was inoculated onto the plates containing the sample solution of various concentrations. The plates were incubated for 18 hours in an incubator at 37° C., and then a microbicidal activity of each compound was assessed.

Escherichia coli = assay: Agar dilution method microbicidal test; on Growth on agar plate: key: +: grew; −: did not grow
Protocol: as §1, §2, §3, §4, §5

Streptococcus pyogenes = assay: Agar dilution method microbicidal test; on Growth on agar plate: key: +: grew; −: did not grow
Protocol: as §1, §2, §3, §4, §5

Vibrio parahaemolyticus = assay: Agar dilution method microbicidal test; on Growth on agar plate: key: +: grew; −: did not grow
Protocol: as §1, §2, §3, §4, §5

[2] = system: Bacillus subtilis ATCC6633; assay: Agar dilution method microbicidal test; conditions: Bacillus subtilis ATCC 6633; on Growth on agar plate: key: +: grew; −: did not grow
Protocol: as §1, §2, §3, §4, §5

Bacillus cereus = assay: Agar dilution method microbicidal test; on Growth on agar plate: key: +: grew; −: did not grow
Protocol: as §1, §2, §3, §4, §5

Yersinia enterocolitica [3] = assay: Paper disk method microbicidal test; conditions: 2.5 mg/mL solution on 8.12 mm paper disk, 0 mg/mL control: 15.65 (flavone, 40% DMSO), — (catechin)
Protocol: As microbicidal test method for 5,7,4′-trihydroxy-3′,5′-dimethoxyflavone, the paper disk method was employed, by which method the microbicidal activity can be judged even in cases where a solvent has some influences.
In paper disk method, sample solutions having various sample concentration are prepared, and the sample solution was absorbed in a special paper disk, followed by drying the paper disk. Onto the plate which is made by mixing a prepared bacterial suspension with agar medium, the paper disks are placed. If the sample has a microbicidal activity, the inhibition ring which indicates the inhibition of bacterial growth is formed such that the center of the ring is coincident with the paper disk. The degree of a microbicidal activity is judged based on the size of the inhibition ring.
First, 4 mg of 5,7,4′-trihydroxy-3′,5′-dimethoxyflavone sample was dissolved in 200 μL to prepare 20 mg/mL sample solution. To 100 μL of this 20 mg/mL sample solution, 100 μL of sterilized water was added to prepare 200 μL of 10 mg/mL sample solution. To the solution, 60 μL DMSO and 140 μL of sterilized water were added to prepare 400 μL of 5.0 mg/mL sample solution. DMSO was used in the concentration of 40%, because the sample precipitated from 30% DMSO. To 350 μL of 5.0 mg/mL sample solution, 140 μL DMSO and 210 μL of sterilized water were added to prepare 700 μL of 2.5 mg/mL sample solution. In the same manner, 1.25 mg/mL and 0.625 mg/mL sample solutions were prepared. As a control, a solution containing 40% DMSO and 60% sterilized water was prepared. […] In a paper disk (8.12 mm diameter), 70 μL of these solutions each was absorbed, and the paper disks were dried for a day.
As test bacteria, Staphylococcus aureus, Salmonella sp., Yersinia enterocolitica, Pseudomonas aeruginosa, and Candida sp. were used. These bacteria were mixed with 2 mL of sterilized water to prepare bacterial suspensions having turbidity 1 (10^8/mL). The plate agar was made by mixing 0.2 mL of the bacterial suspension with 19.8 mL of BHI medium. The dried paper disk was placed onto the plate agar, and the plate was incubated in an incubator at 37° C., followed by assessing the activity. In the Table, (-) represents that no microbicidal activity was observed.

Q: Which results are given for catechin [reference compound]?
A: Growth on agar plate (Yersinia enterocolitica [1]; 0.25 mg/mL): +; Growth on agar plate (Yersinia enterocolitica [1]; 0.5 mg/mL): +; Growth on agar plate (Yersinia enterocolitica [1]; 1.0 mg/mL): −; Growth on agar plate (Yersinia enterocolitica [1]; 2.0 mg/mL): −; Growth on agar plate (Yersinia enterocolitica [1]; 3.0 mg/mL): −; Growth on agar plate (Yersinia enterocolitica [1]; 4.0 mg/mL): −; MIC (Yersinia enterocolitica [1]; BHI agar, 37° C., 18 hours): 1000 µg/mL; Growth on agar plate (Escherichia coli; 0.25 mg/mL): +; Growth on agar plate (Escherichia coli; 0.5 mg/mL): +; Growth on agar plate (Escherichia coli; 1.0 mg/mL): +; Growth on agar plate (Escherichia coli; 2.0 mg/mL): +; Growth on agar plate (Escherichia coli; 3.0 mg/mL): +; Growth on agar plate (Escherichia coli; 4.0 mg/mL): +; MIC (Escherichia coli; BHI agar, 37° C., 18 hours): 2000 µg/mL; Growth on agar plate (Streptococcus pyogenes; 0.25 mg/mL): +; Growth on agar plate (Streptococcus pyogenes; 0.5 mg/mL): +; Growth on agar plate (Streptococcus pyogenes; 1.0 mg/mL): +; Growth on agar plate (Streptococcus pyogenes; 2.0 mg/mL): −; Growth on agar plate (Streptococcus pyogenes; 3.0 mg/mL): −; Growth on agar plate (Streptococcus pyogenes; 4.0 mg/mL): −; MIC (Streptococcus pyogenes; BHI agar, 37° C., 18 hours): 2000 µg/mL; Growth on agar plate (Vibrio parahaemolyticus; 0.25 mg/mL): +; Growth on agar plate (Vibrio parahaemolyticus; 0.5 mg/mL): −; Growth on agar plate (Vibrio parahaemolyticus; 1.0 mg/mL): −; Growth on agar plate (Vibrio parahaemolyticus; 2.0 mg/mL): −; Growth on agar plate (Vibrio parahaemolyticus; 3.0 mg/mL): −; Growth on agar plate (Vibrio parahaemolyticus; 4.0 mg/mL): −; MIC (Vibrio parahaemolyticus; BHI agar, 37° C., 18 hours): 500 µg/mL; Growth on agar plate ([2]; 0.25 mg/mL): +; Growth on agar plate ([2]; 0.5 mg/mL): +; Growth on agar plate ([2]; 1.0 mg/mL): +; Growth on agar plate ([2]; 2.0 mg/mL): +; Growth on agar plate ([2]; 3.0 mg/mL): −; Growth on agar plate ([2]; 4.0 mg/mL): −; MIC ([2]; BHI agar, 37° C., 18 hours): 3000 µg/mL; Growth on agar plate (Bacillus cereus; 0.25 mg/mL): +; Growth on agar plate (Bacillus cereus; 0.5 mg/mL): +; Growth on agar plate (Bacillus cereus; 1.0 mg/mL): −; Growth on agar plate (Bacillus cereus; 2.0 mg/mL): −; Growth on agar plate (Bacillus cereus; 3.0 mg/mL): −; Growth on agar plate (Bacillus cereus; 4.0 mg/mL): −; MIC (Bacillus cereus; BHI agar, 37° C., 18 hours): 1000 µg/mL; size of the inhibition ring (Yersinia enterocolitica [3]): 9.49
